# Data reported in the supplement of paper PMC10307832.
# Experiments:
# Experiment in all cases: relative viability (nuclei count vs DMSO), 5 days (fraction); higher = more cells survive
# [1] = compound: CC1=C(CC(=O)O)c2cc(F)ccc2/C1=C\c1ccc([S+](C)[O-])cc1 [Sulindac] + NC(=O)Nc1cc(-c2cccc(F)c2)sc1C(=O)N[C@H]1CCCNC1 [AZD7762] (partner 0.2 µM)
# Procedure, shortened: (§1)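 Values are medians from duplicate plates. Each reflects relative viability, defined as the nuclei count of treated wells over that of vehicle wells. Lung cancer cell lines in 1536-well plates were pin-tool dosed one day after seeding with one drug alone or with a fixed anchor-drug dose plus five library-drug doses (not always all listed) in √10 steps, then fixed, stained and imaged at 4× after 5 days.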
# [2] = compound: CN[C@@H]1C[C@H]2O[C@@](C)([C@@H]1OC)n1c3ccccc3c3c4c(c5c6ccccc6n2c5c31)C(=O)NC4 [Staurosporine] + CC(C)C[C@H](NC(=O)[C@H](Cc1ccccc1)NC(=O)c1cnccn1)B(O)O [Bortezomib] (partner 0.002 µM)
# Procedure, shortened: as §1
# [3] = compound: CC1=C(CC(=O)O)c2cc(F)ccc2/C1=C\c1ccc([S+](C)[O-])cc1 [Sulindac] + O=C(CCCCCCC(=O)Nc1ccccc1)NO [Vorinostat] (partner 1 µM)
# Procedure, shortened: as §1
# [4] = compound: CN[C@@H]1C[C@H]2O[C@@](C)([C@@H]1OC)n1c3ccccc3c3c4c(c5c6ccccc6n2c5c31)C(=O)NC4 [Staurosporine] + Cc1nc(NC(=O)N2CCC[C@H]2C(N)=O)sc1-c1ccnc(C(C)(C)C(F)(F)F)c1 [Alpelisib] (partner 2 µM)
# Procedure, shortened: as §1
Cell Line,relative viability ([1]; first compound 0.08 µM),relative viability ([1]; first compound 0.253 µM),relative viability ([1]; first compound 0.8 µM),relative viability ([1]; first compound 2.53 µM),relative viability ([1]; first compound 8 µM),relative viability ([2]; first compound 0.005 µM),relative viability ([2]; first compound 0.01581 µM),relative viability ([2]; first compound 0.05 µM),relative viability ([2]; first compound 0.1581 µM),relative viability ([2]; first compound 0.5 µM),relative viability ([3]; first compound 0.08 µM),relative viability ([3]; first compound 0.253 µM),relative viability ([3]; first compound 0.8 µM),relative viability ([3]; first compound 2.53 µM),relative viability ([3]; first compound 8 µM),relative viability ([4]; first compound 0.005 µM),relative viability ([4]; first compound 0.01581 µM),relative viability ([4]; first compound 0.05 µM),relative viability ([4]; first compound 0.1581 µM),relative viability ([4]; first compound 0.5 µM)
201T,0.647,0.628,0.868,0.661,0.596,1.13,1.1,1.04,0.911,0.747,1.13,0.993,0.84,0.944,0.999,1.03,0.973,0.874,0.715,0.59
A549,–,–,–,–,–,–,–,–,–,–,–,–,–,–,–,0.206,0.284,0.0899,0.0462,0.0282
A-427,0.742,0.692,1.01,0.727,0.808,1.02,0.87,0.367,0.131,0.133,0.829,0.84,0.953,0.84,0.995,1.03,0.889,0.374,0.25,0.143
ABC-1,1.16,–,0.636,0.682,0.751,0.264,0.232,0.247,0.187,0.185,1.01,1.27,1.14,0.74,1.09,0.535,0.255,0.168,0.182,0.0986
BEN,0.728,0.727,0.598,0.604,0.776,0.698,0.528,–,0.253,0.163,0.576,0.57,0.539,0.614,0.617,1.26,–,0.615,0.497,0.286
CAL-12T,0.586,0.717,0.497,0.622,0.708,0.343,0.227,0.233,0.244,0.186,0.783,0.858,0.671,0.821,1.07,0.374,0.146,0.125,0.0823,0.0729
COR-L23,–,–,–,–,–,0.69,0.282,0.272,0.104,0.0851,0.453,0.471,0.399,0.499,0.561,0.204,0.226,0.143,0.0629,0.0497
COR-L 105,–,–,–,–,–,0.351,0.257,0.203,0.22,0.231,0.95,0.982,0.856,0.77,0.967,0.59,0.388,0.236,0.235,0.197
Calu-6,–,–,–,–,–,0.844,0.531,0.313,0.14,0.0926,–,–,–,–,–,0.732,0.612,0.279,0.104,0.0766
ChaGo-K-1,0.949,0.878,0.803,0.932,0.906,0.992,–,0.86,0.243,0.222,0.874,0.822,0.575,0.755,0.907,–,–,–,–,–
EBC-1,–,–,–,–,–,0.308,0.234,0.185,0.2,0.14,–,–,–,–,–,0.367,0.307,0.151,0.157,0.145
EKVX,0.755,0.902,0.571,0.763,0.809,0.351,0.234,0.262,–,0.125,0.636,0.635,–,0.652,0.771,0.729,0.409,0.177,0.214,0.122
EMC-BAC-2,1.22,1.2,0.849,1.04,1.35,0.564,0.564,0.224,0.178,0.137,0.559,0.405,0.367,0.426,0.528,0.34,0.23,0.0952,0.131,0.108
EPLC-272H,0.432,–,0.53,0.155,0.263,1.01,0.195,0.447,0.181,0.126,0.465,0.341,0.68,0.339,0.424,0.977,0.122,0.459,0.156,0.188
H3255,0.884,0.931,0.627,0.867,1.11,0.357,0.228,0.337,0.162,0.136,0.765,0.723,0.661,0.695,0.819,0.612,0.367,0.215,0.174,0.0798
HARA,0.339,0.392,0.288,0.294,0.307,0.996,0.351,0.233,0.115,0.179,0.474,0.675,0.425,0.512,0.461,0.532,0.173,0.142,0.0954,0.0999
HCC-15,1.11,1.44,0.883,1.23,1.16,1.05,–,0.842,0.376,0.251,0.94,0.885,0.738,0.835,0.975,0.887,–,0.64,0.453,0.262
HCC-44,1.04,1.01,1.09,0.979,0.942,0.708,0.367,0.169,0.142,0.0976,1.14,1.1,1.14,1.1,1.1,0.441,0.167,0.106,0.11,0.0846
HCC-78,0.614,0.6,0.557,0.599,0.722,0.483,0.388,0.256,0.404,0.332,0.363,0.415,0.433,0.455,0.462,0.394,0.305,0.241,0.281,0.237
IA-LM,–,–,–,–,–,0.188,–,0.238,0.131,0.07,1.07,1.21,–,0.913,0.981,0.577,–,0.281,0.211,0.0757
LK-2,0.456,0.469,0.318,0.465,0.414,–,–,–,–,–,0.292,0.258,0.234,0.289,0.228,1.24,1.18,0.451,0.191,0.0868
NCI-H358,0.45,0.517,–,0.427,0.651,–,–,–,–,–,0.842,0.722,0.601,0.669,0.897,0.553,0.222,0.19,0.144,0.161

Cell Line,relative viability ([1]; first compound 0.08 µM),relative viability ([1]; first compound 0.253 µM),relative viability ([1]; first compound 0.8 µM),relative viability ([1]; first compound 2.53 µM),relative viability ([1]; first compound 8 µM),relative viability ([2]; first compound 0.005 µM),relative viability ([2]; first compound 0.01581 µM),relative viability ([2]; first compound 0.05 µM),relative viability ([2]; first compound 0.1581 µM),relative viability ([2]; first compound 0.5 µM),relative viability ([3]; first compound 0.08 µM),relative viability ([3]; first compound 0.253 µM),relative viability ([3]; first compound 0.8 µM),relative viability ([3]; first compound 2.53 µM),relative viability ([3]; first compound 8 µM),relative viability ([4]; first compound 0.005 µM),relative viability ([4]; first compound 0.01581 µM),relative viability ([4]; first compound 0.05 µM),relative viability ([4]; first compound 0.1581 µM),relative viability ([4]; first compound 0.5 µM)
NCI-H520,–,–,–,–,–,0.716,0.128,0.307,0.207,0.117,0.897,0.914,0.686,0.682,0.778,1.2,0.784,0.544,0.477,0.165
NCI-H522,0.753,0.921,0.962,0.693,0.657,–,–,–,–,–,0.673,0.829,0.747,0.906,0.964,–,–,–,–,–
NCI-H661,–,–,–,–,–,0.716,0.453,0.341,0.275,0.228,0.936,0.812,0.693,0.814,0.852,0.651,0.313,0.303,0.283,0.251
NCI-H1299,–,–,–,–,–,1.1,1.03,0.433,0.255,0.169,–,–,–,–,–,1.13,0.874,0.237,0.205,0.196
NCI-H1395,0.387,0.378,0.4,0.401,0.401,–,–,–,–,–,0.662,0.832,0.641,0.682,0.959,1.05,0.474,0.366,0.498,0.271
NCI-H1563,–,–,–,–,–,0.655,0.571,0.661,0.501,0.438,–,–,–,–,–,0.813,0.57,0.63,0.53,0.489
NCI-H1648,0.682,0.746,–,0.7,0.768,–,–,–,–,–,0.44,0.318,–,0.402,0.512,–,–,–,–,–
NCI-H1650,–,–,–,–,–,0.205,0.179,0.197,0.179,0.194,0.586,0.54,0.605,0.486,0.557,–,–,–,–,–
NCI-H1703,0.129,0.14,–,0.111,0.17,0.215,0.165,0.11,0.157,0.111,–,–,–,–,–,0.219,0.167,0.142,0.139,0.102
NCI-H1792,0.98,0.647,–,0.766,0.703,1.05,0.797,0.372,0.182,0.196,–,–,–,–,–,0.789,0.499,0.187,0.14,0.117
NCI-H1793,0.41,0.537,–,0.441,0.33,–,–,–,–,–,0.726,0.716,–,0.637,0.68,0.774,0.506,0.593,0.383,0.179
NCI-H1944,0.519,0.382,0.526,0.512,0.551,–,–,–,–,–,0.604,0.62,0.506,0.574,0.571,0.953,–,0.483,0.384,0.341
NCI-H2009,–,–,–,–,–,0.278,0.147,0.165,0.0953,0.0887,0.84,0.84,0.748,0.649,0.81,0.864,0.276,0.267,0.173,0.141
NCI-H2023,–,–,–,–,–,0.612,0.19,0.181,0.0797,0.0526,0.945,0.879,0.582,0.652,0.685,0.56,0.28,0.274,0.15,0.0702
NCI-H2170,1.06,0.91,0.765,1.01,0.884,–,–,–,–,–,0.937,0.741,0.69,0.833,0.924,0.903,0.611,0.568,0.377,0.281
NCI-H2228,–,–,–,–,–,0.782,0.421,0.419,0.227,0.118,0.588,0.831,0.497,0.981,0.865,0.658,0.204,0.155,0.148,0.0961
NCI-H2342,0.76,0.495,0.441,0.491,0.5,–,–,–,–,–,0.791,0.774,0.619,0.669,0.791,–,–,–,–,–
SK-LU-1,–,–,–,–,–,0.906,–,0.255,0.2,0.179,0.877,0.901,0.74,0.722,0.874,0.264,0.188,0.18,0.158,0.122
SK-MES-1,–,–,–,–,–,–,–,–,–,–,1.43,1.25,1.09,1.23,1.16,0.849,0.534,0.246,0.18,0.177
SW 900,0.538,0.677,–,–,0.643,–,–,–,–,–,0.553,0.47,–,–,0.578,–,–,–,–,–
SW 1573,–,–,–,–,–,0.712,0.444,0.192,0.101,0.0911,0.777,0.95,0.585,0.683,1.11,0.45,0.299,0.144,0.14,0.148
